Read-outs that look alike come from different tables or passages of the source.
What was measured:
KDM5B = biological target: T1, KDM5B (Homo sapiens, UniProt Q9UGL1); assay: biochemical
T1 construct: Full length of KDM5B and KDM4C protein were purchased from Active Motif; purchased Active Motif 31832
Description: (§1) KDM4C and KDM5B AlphaScreen Assay Material and Method
(§2) Compounds disclosed herein were (and can be) screened using the following assay.
Peptides used in all experiments were purchased from Anaspe. […] Final concentration of KDM5B and KDM4C used in the assay were 0.5 nM and 0.2 nM. Final concentration of peptides for 5B and 4C used in the assay were 3 nM.
(§3) 4 μL of KDM5B or KDM4C protein were added to 384-well OptiPlate by using multiflow, followed by 4 μl of either buffer or compound. Plates were sealed, spun down and incubated at RT for 15 min. 4 μl of biotinylated peptide was added to the plate, the plate was incubated at room temperature for 25 minutes (KDM5B) and 30 minutes (KDM4C) after sealed and spun down. Streptavidin donor beads and acceptor beads were diluted and mixed in the detection buffer with 7.5 mM EDTA, followed by adding 8 μl of acceptor and donor beads mix to the plate, before the plate was sealed and incubated at room temperature for 3 h or overnight at dark. The plate was read on Envision plate reader (PerkinElmer) using Alphascreen protocol. IC50s were calculated in GraphPad Prism 6.

KDM4C = biological target: T2, KDM4C (Homo sapiens, UniProt Q9H3R0); assay: KDM4C AlphaScreen assay; type: biochemical; details: AlphaScreen; full length KDM4C 0.2 nM; biotinylated H3K9Me3 peptide 3 nM; 30 minutes at room temperature
T2 construct: Full length of KDM5B and KDM4C protein were purchased from Active Motif; purchased Active Motif 31858
T2 sequence (Q9H3R0 1-1056): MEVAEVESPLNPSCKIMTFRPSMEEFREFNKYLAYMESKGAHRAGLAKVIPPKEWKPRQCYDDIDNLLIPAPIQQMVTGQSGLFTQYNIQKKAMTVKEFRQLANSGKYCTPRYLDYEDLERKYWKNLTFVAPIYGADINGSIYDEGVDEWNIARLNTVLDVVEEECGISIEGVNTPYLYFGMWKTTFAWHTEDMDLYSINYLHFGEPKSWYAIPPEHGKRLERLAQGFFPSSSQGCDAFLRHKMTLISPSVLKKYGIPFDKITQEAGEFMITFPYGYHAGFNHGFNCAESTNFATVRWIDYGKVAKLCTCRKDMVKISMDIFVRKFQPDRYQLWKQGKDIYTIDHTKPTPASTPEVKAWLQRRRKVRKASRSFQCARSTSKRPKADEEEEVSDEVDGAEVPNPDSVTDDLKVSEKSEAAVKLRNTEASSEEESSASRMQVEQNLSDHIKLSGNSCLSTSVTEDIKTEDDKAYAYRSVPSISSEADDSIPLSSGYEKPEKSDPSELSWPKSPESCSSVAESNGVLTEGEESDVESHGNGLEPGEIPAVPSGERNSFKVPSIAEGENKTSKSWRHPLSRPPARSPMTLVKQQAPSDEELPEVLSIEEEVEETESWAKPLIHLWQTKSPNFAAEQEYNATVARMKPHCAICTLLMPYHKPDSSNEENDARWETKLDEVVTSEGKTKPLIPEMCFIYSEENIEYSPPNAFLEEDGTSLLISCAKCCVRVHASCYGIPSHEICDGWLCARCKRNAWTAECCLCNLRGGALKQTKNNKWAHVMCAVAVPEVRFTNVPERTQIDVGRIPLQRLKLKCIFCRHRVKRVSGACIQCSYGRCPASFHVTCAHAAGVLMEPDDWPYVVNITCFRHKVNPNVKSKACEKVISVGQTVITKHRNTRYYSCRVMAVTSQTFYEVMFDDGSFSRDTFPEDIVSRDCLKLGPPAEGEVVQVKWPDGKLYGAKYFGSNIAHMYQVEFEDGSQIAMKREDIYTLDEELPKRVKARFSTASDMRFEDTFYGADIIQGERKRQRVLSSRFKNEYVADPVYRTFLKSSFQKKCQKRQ
Description: as §1, §2
Peptides used in all experiments were purchased from Anaspe. Full length of KDM5B and KDM4C protein were purchased from Active Motif: KDM5B (cat#31832) and KDM4C (Cat #31858). Final concentration of KDM5B and KDM4C used in the assay were 0.5 nM and 0.2 nM. Final concentration of peptides for 5B and 4C used in the assay were 3 nM.
as §3, with “AlphaScreen assays was conducted as following protocol: buffer used to make compound plate or DMSO is composed of 50 mM HEPES pH 7.4, 0.003% Tween-20; buffer used to dilute enzyme is composed of 50 mM HEPES pH 7.4, 0.003% Tween-20, 0.01% BSA, 500 μM TCEP; and buffer used to dilute the substrate is composed of 50 mM HEPES pH 7.4, 0.003% Tween-20, (NH4)2Fe(SO4)2 15 μM, alpha-ketoglutaric acid 4 μM and L-ascorbic acid 100 μM. 4 μL” for “4 μL”

[1] = AlphaScreen, full length KDM5B 0.5 nM, biotinylated H3K4Me3 peptide 3 nM, 25 minutes at room temperature, read-out: KDM5B (IC50)

T1 sequence (Q9UGL1 whole entry): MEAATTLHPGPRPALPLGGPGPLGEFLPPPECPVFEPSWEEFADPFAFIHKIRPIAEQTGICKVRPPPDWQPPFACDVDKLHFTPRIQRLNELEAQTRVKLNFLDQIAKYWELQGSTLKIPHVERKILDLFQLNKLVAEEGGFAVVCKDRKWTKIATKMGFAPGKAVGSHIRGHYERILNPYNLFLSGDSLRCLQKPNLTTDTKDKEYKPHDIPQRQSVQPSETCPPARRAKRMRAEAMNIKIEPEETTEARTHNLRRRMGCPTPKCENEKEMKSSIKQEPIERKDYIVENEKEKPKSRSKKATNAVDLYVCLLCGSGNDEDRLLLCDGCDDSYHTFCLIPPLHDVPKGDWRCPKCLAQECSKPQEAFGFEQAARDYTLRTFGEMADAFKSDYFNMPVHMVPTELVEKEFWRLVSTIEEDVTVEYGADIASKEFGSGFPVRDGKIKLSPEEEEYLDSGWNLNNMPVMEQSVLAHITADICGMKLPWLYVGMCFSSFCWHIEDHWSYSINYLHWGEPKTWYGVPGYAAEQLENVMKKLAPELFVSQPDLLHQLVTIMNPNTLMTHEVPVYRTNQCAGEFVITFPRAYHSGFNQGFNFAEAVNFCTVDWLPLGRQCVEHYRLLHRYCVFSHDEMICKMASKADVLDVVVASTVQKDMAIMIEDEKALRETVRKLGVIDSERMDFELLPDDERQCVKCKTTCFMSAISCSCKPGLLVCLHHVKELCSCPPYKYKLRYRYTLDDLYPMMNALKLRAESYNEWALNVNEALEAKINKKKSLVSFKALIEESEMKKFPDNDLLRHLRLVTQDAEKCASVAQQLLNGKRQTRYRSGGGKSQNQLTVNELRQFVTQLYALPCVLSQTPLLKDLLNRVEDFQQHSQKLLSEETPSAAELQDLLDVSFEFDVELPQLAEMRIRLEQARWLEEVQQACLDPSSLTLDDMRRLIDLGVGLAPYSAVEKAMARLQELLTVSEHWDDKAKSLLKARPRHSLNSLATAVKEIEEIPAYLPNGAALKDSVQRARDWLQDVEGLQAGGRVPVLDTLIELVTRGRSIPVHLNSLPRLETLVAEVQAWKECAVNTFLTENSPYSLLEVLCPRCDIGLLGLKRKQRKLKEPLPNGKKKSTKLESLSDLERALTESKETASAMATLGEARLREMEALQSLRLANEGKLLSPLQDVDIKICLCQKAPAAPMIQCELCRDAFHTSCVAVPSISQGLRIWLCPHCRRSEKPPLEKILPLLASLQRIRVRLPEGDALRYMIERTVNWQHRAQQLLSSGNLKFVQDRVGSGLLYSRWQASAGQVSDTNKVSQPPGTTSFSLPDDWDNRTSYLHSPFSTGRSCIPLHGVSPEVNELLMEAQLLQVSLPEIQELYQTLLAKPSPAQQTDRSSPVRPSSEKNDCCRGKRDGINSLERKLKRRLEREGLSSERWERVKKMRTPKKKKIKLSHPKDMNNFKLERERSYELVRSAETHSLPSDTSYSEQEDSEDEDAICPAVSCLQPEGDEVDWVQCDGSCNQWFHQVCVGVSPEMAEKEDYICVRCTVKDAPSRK

IC50 (KDM5B; [1]) | IC50 (KDM4C) | IC50 (KDM5B) | Structure (SMILES)
14 nM | 1400 nM |  | CC(C)c1c(O)nc(-n2ccnc2)nc1-c1cnn(CC(=O)NCCN(C)c2ccccc2)c1 [Example 102, 2-{4-[6-Hydroxy-2-(1H-imidazol-1-yl)-5-(propan-2-yl)pyrimidin-4-yl]-1H-pyrazol-1-yl}-N-{2-[methyl-(phenyl)amino]ethyl}-acetamide]
10 nM | 1140 nM |  | CC(C)c1c(O)nc(-n2ccnc2)nc1-c1cnn(Cc2cccnc2)c1 [Example 45, 2-(1H-Imidazol-1-yl)-5-(propan-2-yl)-6-[1-(pyridin-3-ylmethyl)-1H-pyrazol-4-yl]-pyrimidin-4-ol]
19 nM | 2010 nM |  | CC(C)c1c(O)nc(-n2ccnc2)nc1-c1cnn(Cc2ccccn2)c1 [Example 64, 2-(1H-Imidazol-1-yl)-5-(propan-2-yl)-6-[1-(pyridin-2-ylmethyl)-1H-pyrazol-4-yl]-pyrimidin-4-ol]
 | 1750 nM | 32 nM | CC(C)c1c(O)nc(-n2ccnc2)nc1Oc1cccnc1 [Example 28a, 2-(1H-Imidazol-1-yl)-5-isopropyl-6-(pyridin-3-yloxy)pyrimidin-4-ol]
 | 716 nM | 13 nM | CC(C)c1c(O)nc(-n2ccnc2)nc1-c1cnn(C2CCC2)c1 [Example 49, 6-(1-Cyclobutyl-1H-pyrazol-4-yl)-2-(1H 1H-imidazol-1-yl)-5-(propan-2-yl)pyrimidin-4-ol]
 | 50000 nM | 3320 nM | Cc1nc(-c2ccncc2)nc(O)c1C(C)C [Example 149, 6-Methyl-5-(propan-2-yl)-2-(pyridin-4-yl)pyrimidin-4-ol]
 | 9460 nM | 480 nM | Cc1nc(-n2ccnc2C)nc(O)c1C(C)C [Example 148, 6-Methyl-2-(2-methyl-1H-imidazol-1-yl)-5-(propan-2-yl)pyrimidin-4-ol]
 | 1120 nM | 27 nM | CC(C)c1c(O)nc(-n2ccnc2)nc1OCCc1ccncc1 [Example 129, 2-(1H-Imidazol-1-yl)-5-(propan-2-yl)-6-[2-(pyridin-4-yl)ethoxy]pyrimidin-4-ol]
 | 7450 nM | 117 nM | CC(C)c1c(O)nc(-n2ccnc2)nc1-c1cnn(CC(=O)O)c1 [Example 5, 2-(4-(6-Hydroxy-2-(1H-imidazol-1-yl)-5-isopropylpyrimidin-4-yl)-1H-pyrazol-1-yl)acetic acid]
 | 1210 nM | 7 nM | CC(C)c1c(O)nc(-n2ccnc2)nc1OCCC1CCN(C)CC1 [Example 11, 2-(1H-imidazol-1-yl)-6-[2-(1-methylpiperidin-4-yl)ethoxy]-5-(propan-2-yl)pyrimidin-4-ol]
2410 nM | 30000 nM |  | Cc1nc(-c2nccs2)nc(O)c1C(C)C [Example 158, 6-Methyl-5-(propan-2-yl)-2-(1,3-thiazol-2-yl)-pyrimidin-4-ol]
 | 1600 nM | 21 nM | CC(C)c1c(O)nc(-n2ccnc2)nc1-c1cnn(CC(=O)N2CCC(O)C2)c1 (stereo not drawn) [Example 112, 2-{4-[6-Hydroxy-2-(1H-imidazol-1-yl)-5-(propan-2-yl)pyrimidin-4-yl]-1H-pyrazol-1-yl}-1-(3-hydroxy-pyrrolidin-1-yl)ethan-1-one]
 | 2090 nM | 27 nM | CC(C)c1c(O)nc(-n2ccnc2)nc1OCCC1CCOCC1 [Example 131, 2-(1H-Imidazol-1-yl)-6-[2-(oxan-4-yl)ethoxy]-5-(propan-2-yl)pyrimidin-4-ol]
 | 613 nM | 48 nM | Cc1nc(-n2ccnc2CO)nc(O)c1C(C)C [Example 25, 2-[2-(hydroxymethyl)imidazol-1-yl]-5-isopropyl-6-methyl-pyrimidin-4-ol]
58 nM | 975 nM |  | CC(C)c1c(O)nc(-n2ccnc2)nc1OCCN(C)C [Example 137, 6-[2-(Dimethylamino)-ethoxy]-2-(1H-imidazol-1-yl)-5-(propan-2-yl)pyrimidin-4-ol]
 | 14100 nM | 4420 nM | Oc1nc(-c2cncs2)ncc1C1CC1 [Example 32, 5-cyclopropyl-2-(thiazol-5-yl)pyrimidin-4-ol]
 | 1460 nM | 107 nM | COc1nc(-n2ccnc2)nc(O)c1C(C)C [Example 12, 2-(1H-Imidazol-1-yl)-5-isopropyl-6-methoxypyrimidin-4-ol]
 | 16900 nM | 1120 nM | Cc1nc(-c2scnc2C(=O)NCc2ccccc2)nc(O)c1C(C)C [Example 150, N-benzyl-5-[6-methyl-4-oxo-5-(propan-2-yl)-1,4-dihydropyrimidin-2-yl]-1,3-thiazole-4-carboxamide]
 | 1960 nM | 14 nM | COCCn1cc(-c2nc(-n3ccnc3)nc(O)c2C(C)C)cn1 [Example 51, 2-(1H-Imidazol-1-yl)-6-[1-(2-methoxyethyl)-1H-pyrazol-4-yl]-5-(propan-2-yl)pyrimidin-4-ol]
 | 1650 nM | 65 nM | Cc1nc(-c2cncs2)nc(O)c1C(C)C [Example 155, 6-Methyl-5-(propan-2-yl)-2-(1,3-thiazol-5-yl)-pyrimidin-4-ol]
 | 779 nM | 7 nM | CC(C)c1c(O)nc(-n2ccnc2)nc1-c1cnn(CC(=O)NCCN2CCC(F)(F)CC2)c1 [Example 96, N-[2-(4,4-Difluoropiperidin-1-yl)ethyl]-2-{4-[6-hydroxy-2-(1H-Imidazol-1-yl)-5-(propan-2-yl)pyrimidin-4-yl]-1H-pyrazol-1-yl}acetamide]
 | 2120 nM | 21 nM | CC(C)c1c(O)nc(-n2ccnc2)nc1-c1cnn(CC(=O)NCCN(CC(F)(F)F)C2CC2)c1 [Example 111, N-[2-[Cyclopropyl(2,2,2-trifluoroethyl)amino]ethyl}-2-{4-[6-hydroxy-2-(1H-imidazol-1-yl)-5-(propan-2-yl)pyrimidin-4-yl]-1H-pyrazol-1-yl}acetamide]
 | 1220 nM | 16 nM | CC(C)c1c(O)nc(-n2ccnc2)nc1-c1ccc(CO)cc1 [Example 58, 6-[4-(Hydroxymethyl)-phenyl]-2-(1H-imidazol-1-yl)-5-(propan-2-yl)pyrimidin-4-ol]
 | 9710 nM | 240 nM | CC(C)c1c(O)nc(-n2ccnc2)nc1-c1ccc(C(=O)NCC(=O)O)cc1 [Example 85, 2-({4-[6-Hydroxy-2-(1H-imidazol-1-yl)-5-(propan-2-yl)pyrimidin-4-yl]phenyl}-formamido)acetic acid]

Reference: patent US20190135793A1, “HETEROCYCLIC INHIBITORS OF KDM5 FOR THE TREATMENT OF DISEASE” (Board of Regents, The University of Texas System, priority 2017, published 2019)
